Results from ChEMBL document CHEMBL1140270, “Synthesis and biological evaluation of new biphalin analogues with non-hydrazine linkers” (Bioorg Med Chem Lett, 2005).

Experiments:
[1] = In vitro inhibition of [3H]DAMGO binding to Opioid receptor mu
[2] = target: Delta-type opioid receptor (Mus musculus, UniProt P32300); test: In vitro agonist activity against Opioid receptor delta in mouse vas deferens; type: functional, tissue-based
[3] = In vitro inhibition of [3H]DPDPE binding to Opioid receptor delta
Mu-type opioid receptor = Mu-type opioid receptor (Cavia porcellus, UniProt P97266); test: In vitro agonist activity against Opioid receptor mu in guinea pig ileum/longitudinal muscle myenteric plexus; type: functional, tissue-based
Mu-type opioid receptor, sequence (P97266 whole entry): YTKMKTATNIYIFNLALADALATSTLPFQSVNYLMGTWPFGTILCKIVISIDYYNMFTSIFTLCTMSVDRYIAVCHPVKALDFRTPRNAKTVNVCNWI

[4] = target: Mu-type opioid receptor (Cavia porcellus) (UniProt P97266); test: Percent inhibition against Opioid receptor mu in guinea pig ileum/longitudinal muscle myenteric plexus; type: functional, tissue-based; settings: concentration not given here
Mu-type opioid receptor (Cavia porcellus), sequence (P97266 whole entry): as above

[5] = target: Delta-type opioid receptor (Mus musculus) (UniProt P32300); test: Percent inhibition against Opioid receptor delta in mouse vas deferens; type: functional, tissue-based; settings: concentration not given here
Delta-type opioid receptor (Mus musculus), sequence (P32300 whole entry): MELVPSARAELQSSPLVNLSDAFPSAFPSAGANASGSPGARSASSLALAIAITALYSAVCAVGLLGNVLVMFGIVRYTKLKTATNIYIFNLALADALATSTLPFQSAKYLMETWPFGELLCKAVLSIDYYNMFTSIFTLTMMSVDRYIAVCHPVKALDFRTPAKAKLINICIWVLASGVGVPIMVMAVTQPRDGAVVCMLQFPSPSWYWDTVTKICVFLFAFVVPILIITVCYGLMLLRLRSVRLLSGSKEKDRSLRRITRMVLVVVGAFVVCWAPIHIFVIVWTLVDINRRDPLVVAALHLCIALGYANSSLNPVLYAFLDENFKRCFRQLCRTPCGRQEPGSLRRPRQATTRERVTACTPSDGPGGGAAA

Delta-type opioid receptor, sequence (P32300 whole entry): as above

SMILES | IC50 [1] [nM] | IC50 [2] [nM] | IC50 [3] [nM] | IC50 (Mu-type opioid receptor) [nM] | inhibition [4] [%] | inhibition [5] [%]
C[C@@H](NC(=O)[C@@H](N)Cc1ccc(O)cc1)C(=O)NCC(=O)N[C@@H](Cc1ccccc1)C(=O)N1CCN(C(=O)[C@H](Cc2ccccc2)NC(=O)CNC(=O)[C@@H](C)N[C@@H](N)Cc2ccc(O)cc2)CC1 | 0.48 | 9.3 | 0.65 | 2.5 |  | 
C[C@@H](NC(=O)[C@@H](N)Cc1ccc(O)cc1)C(=O)NCC(=O)N[C@@H](Cc1ccccc1)C(=O)Nc1ccc(NC(=O)[C@H](Cc2ccccc2)NC(=O)CNC(=O)[C@@H](C)N[C@@H](N)Cc2ccc(O)cc2)cc1 | 1.27 | 35.6 | 3.17 | 40 |  | 
C[C@@H](NC(=O)[C@@H](N)Cc1ccc(O)cc1)C(=O)NCC(=O)N[C@@H](Cc1ccccc1)C(=O)Nc1ccccc1NC(=O)[C@H](Cc1ccccc1)NC(=O)CNC(=O)[C@@H](C)N[C@@H](N)Cc1ccc(O)cc1 | 1.93 | 0.72 | 0.19 | 40 |  | 
N[C@H](Cc1ccc(O)cc1)C(=O)N[C@H](Cc1ccccc1)C(=O)Nc1ccccc1NC(=O)[C@@H](Cc1ccccc1)NC(=O)[C@H](N)Cc1ccc(O)cc1 | 3010 |  | 640 |  | 61 | 47
N[C@H](Cc1ccc(O)cc1)C(=O)N[C@H](Cc1ccccc1)C(=O)N1CCN(C(=O)[C@@H](Cc2ccccc2)NC(=O)[C@H](N)Cc2ccc(O)cc2)CC1 | 2700 |  | 400 |  | 25.5 | 8.1
C[C@@H](NC(=O)[C@@H](N)Cc1ccc(O)cc1)C(=O)NCC(=O)N[C@@H](Cc1ccccc1)C(=O)NNC(=O)[C@H](Cc1ccccc1)NC(=O)CNC(=O)[C@@H](C)NC(=O)[C@@H](N)Cc1ccc(O)cc1 [BIPHALIN] | 1.4 |  | 2.6 |  |  | 
N[C@H](Cc1ccc(O)cc1)C(=O)N[C@H](Cc1ccccc1)C(=O)Nc1ccc(NC(=O)[C@@H](Cc2ccccc2)NC(=O)[C@H](N)Cc2ccc(O)cc2)cc1 | 8200 |  | 2400 |  | 43 | 17
